Consider 8 compounds from patent US12521393B2, “Cytotoxicity targeting chimeras for CCR2-expressing cells” (GLAXOSMITHKLINE INTELLECTUAL PROPERTY DEVELOPMENT LIMITED, priority 2021, dated 2026).

The term IC50 denotes the concentration that inhibits the measured activity by half. A lower IC50 goes with greater potency.

In test [1] the target is human alpha1 nicotinic acetylcholine (nACh) receptor (Homo sapiens, UniProt P02708). The test can be described thus: Nicotinic acetylcholine receptor antagonism assay, IONFlux automated patch clamp (Example 203). It is filed as cell-based. The following applies: for IC50: antagonism of ACh-stimulated human alpha1 nAChR current, patch clamp; for Emax at 100 µM: maximum percentage antagonism at maximum concentration tested 100 μM; for Emax at 100 µM / Emax at 10 µM: read-out: Maximum Response; for Emax at 10 µM: maximum percentage antagonism at maximum concentration tested 10 μM. Put shortly: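 Cells expressing human α1 nAChR were incubated with a compound dose response (top 10 μM or 100 μM), then stimulated with ACh (10 mM), and peak current was read by automated patch clamp. % inhibition was taken against ACh-alone control, corrected for vehicle and run-down, and fit non-linearly for IC50; runs were averaged.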
human alpha1 nicotinic acetylcholine (nACh) receptor, sequence (P02708 21-457): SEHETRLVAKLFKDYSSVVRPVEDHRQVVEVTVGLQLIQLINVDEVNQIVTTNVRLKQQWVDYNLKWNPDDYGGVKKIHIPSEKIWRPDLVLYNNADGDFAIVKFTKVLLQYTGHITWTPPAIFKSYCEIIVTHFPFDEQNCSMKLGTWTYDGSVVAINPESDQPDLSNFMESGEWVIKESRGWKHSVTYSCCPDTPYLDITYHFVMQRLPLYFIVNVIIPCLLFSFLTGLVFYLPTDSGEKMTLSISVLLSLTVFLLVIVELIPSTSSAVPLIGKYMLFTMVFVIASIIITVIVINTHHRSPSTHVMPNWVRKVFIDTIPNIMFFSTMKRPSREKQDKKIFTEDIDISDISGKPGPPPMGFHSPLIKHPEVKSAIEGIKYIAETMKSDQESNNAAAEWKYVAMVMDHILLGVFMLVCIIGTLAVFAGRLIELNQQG
human alpha1 nicotinic acetylcholine (nACh) receptor, sequence (P11230 24-501 partner): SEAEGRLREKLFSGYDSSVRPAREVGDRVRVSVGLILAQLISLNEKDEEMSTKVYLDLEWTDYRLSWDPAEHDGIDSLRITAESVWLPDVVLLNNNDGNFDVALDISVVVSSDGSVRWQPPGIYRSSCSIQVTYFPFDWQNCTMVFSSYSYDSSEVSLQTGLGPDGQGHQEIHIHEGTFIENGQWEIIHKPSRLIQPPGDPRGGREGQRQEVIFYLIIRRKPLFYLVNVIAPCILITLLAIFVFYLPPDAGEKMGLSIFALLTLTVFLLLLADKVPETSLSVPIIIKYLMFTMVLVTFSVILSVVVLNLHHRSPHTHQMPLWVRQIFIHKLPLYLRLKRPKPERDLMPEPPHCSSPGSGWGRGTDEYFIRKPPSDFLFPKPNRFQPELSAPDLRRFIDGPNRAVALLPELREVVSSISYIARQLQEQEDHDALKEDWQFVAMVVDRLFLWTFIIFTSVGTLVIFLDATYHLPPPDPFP
human alpha1 nicotinic acetylcholine (nACh) receptor, sequence (Q07001 22-517 partner): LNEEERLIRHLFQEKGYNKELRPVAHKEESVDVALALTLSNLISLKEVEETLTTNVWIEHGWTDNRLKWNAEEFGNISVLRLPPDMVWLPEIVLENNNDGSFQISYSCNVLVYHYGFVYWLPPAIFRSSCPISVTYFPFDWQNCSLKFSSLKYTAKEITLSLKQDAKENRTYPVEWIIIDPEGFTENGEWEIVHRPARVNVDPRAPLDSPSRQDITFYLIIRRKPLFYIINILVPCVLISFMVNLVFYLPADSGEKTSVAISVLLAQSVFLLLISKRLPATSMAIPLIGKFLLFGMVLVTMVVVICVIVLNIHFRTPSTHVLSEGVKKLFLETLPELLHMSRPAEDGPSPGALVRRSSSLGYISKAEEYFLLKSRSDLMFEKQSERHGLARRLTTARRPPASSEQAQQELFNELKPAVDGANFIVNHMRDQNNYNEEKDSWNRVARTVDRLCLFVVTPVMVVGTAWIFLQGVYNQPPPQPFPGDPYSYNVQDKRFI
Background: The patch-clamp technique gives a direct electrical read-out from membranes.

Test [2] relates to CCR2 expressing cells (CD11b+Ly6c+Hi) in peripheral blood. The test can be described thus: In vivo depletion assay, flow cytometry of peripheral blood (Example 201). Further details: species or system human CCR2 knock-in mice (C57 background). The following applies: hCCR2 knock-in mice, IV 0.1 mpk compound + 10 mpk anti-cotinine antibody (SEQ ID NO: 13/14), peripheral blood at 48 hr. The method, boiled down:
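Mice dosed with compound formulated in saline/DMSO/PBS, with anti-cotinine antibody (rabbit variable region, mouse IgG2a Fc) where required, pre-incubated 30 min at room temperature. Terminal peripheral blood RBC-lysed, Fc-blocked, stained for CD45, CD3, CD11b, Ly6C, human CCR2 and 7AAD; percent depletion of CD11b+Ly6c+Hi cells determined by flow cytometry.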

Test [3] deals with T1, CHOK1 cells engineered to overexpress human CCR2 (Homo sapiens, UniProt P41597).
T1 construct: expressed in transfected cells; host or cells: CHOK1
The test can be described thus: Antibody dependent cellular cytotoxicity (ADCC) reporter assay (Example 199). It is filed as cell-based. The following applies: with anti-cotinine antibody (SEQ ID NO: 11/12), Jurkat FcγRIIIa NFAT-luciferase reporter cells, 12-18 hours, EC50 in molar, average or individual runs; for EC50: read-out: ADCC Reporter Assay pEC50 (converted). The method, then: An antibody dependent cellular cytoxocity reporter assay was conducted using the following four assay components: (i) ARM compound of Formula (I) targeting CCR2 (concentrations ranging from […] to 10 μM) (ii) anti-cotinine antibody having a heavy chain sequence of SEQ ID NO: 11 and a light chain sequence of SEQ ID NO: 12 (rabbit variable region with human IgG1 Fc domain containing a DE mutation (S239D/1332E)) (concentrations ranging from 0.01 μg/mL to 200 μg/mL); (iii) target cells: CHOK1 cells engineered to overexpress either human CCR2 (typically 1000-20,000 cells per well) and (iv) reporter cells: Jurkat cells engineered to express FcγRIIIa with the reporter gene luciferase under the control of the NFAT promoter (typically 3000-75,000 cells per well). Reagents were combined in a final volume of 20 μL in a 384-well tissue culture treated plate. All four assay components were incubated together for about 12-18 hours. Thereafter, BioGlo Detection reagent (Promega) was added to the wells to lyse the cells and provide a substrate for the luciferase reporter protein. Luminescence signal was measured on a microplate reader and signal: background was calculated by dividing the signal of a test well by the signal obtained when no heterobivalent compound of Formula (I) was added. EC50 calculations were done using Graphpad Prism Software, specifically a nonlinear regression curve fit (Y=Bottom+(Top−Bottom)/(1+10A((LogEC50−X)*HillSlope))).
ARMs compounds of Formula (I) of the invention were tested for ADCC activity in the above assay in or more experimental runs and the results are shown in Table 3 below. Potency of the compounds of Formula (I) of the invention is reported as a pEC50 value. The pEC50 value is the negative log of the EC50 value, wherein the EC50 value is the half maximal effective concentration measured in molar (M). For compounds tested in more than one experimental run, the pEC50 value is reported as an average.

SMILES strings stand for the structures.

Consider `CN1C(=O)C[C@H](C(=O)NCCOCCNC(=O)[C@H]2C[C@H](NC(=O)CCOCCC(=O)N[C@@H]3C[C@H](NC(C)(C)C)CC[C@@H]3N3CC[C@H](Nc4ncnc5ccc(C(F)(F)F)cc45)C3=O)C2)[C@H]1c1cccnc1` [Example 188, (2S,3S)-N-(2-(2-((1R,3S)-3-(3-(3-(((1R,2S,5R)-5-(tert-butylamino)-2-((S)-2-oxo-3-((6-(trifluoromethyl)quinazolin-4-yl)amino)pyrrolidin-1-yl)cyclohexyl)amino)-3-oxopropoxy)propanamido)cyclobutane-1-carboxamido)ethoxy)ethyl)-1-methyl-5-oxo-2-(pyridin-3-yl)pyrrolidine-3-carboxamide], for which, in test [1], inhibition was half-maximal at 85900 nM (IC50) and the Emax at 100 µM came to 53.5%. Further, in test [2], the “% Depletion of CCR2 expressing cells” value worked out at 91%. Besides, in test [3], the EC50 was 0.501 nM.

Regarding `CC(C)N(C)[C@@H]1CC[C@H](N2CC[C@H](Nc3ncnc4ccc(C(F)(F)F)cc34)C2=O)[C@H](NC(=O)[C@H]2CC[C@@H](NC(=O)CCCOCCCCOCCNC(=O)[C@H]3CC(=O)N(C)[C@@H]3c3cccnc3)CC2)C1` [Example 122, (2S,3S)-N-(2-(4-(4-(((1S,4s)-4-(((1R,2S,5R)-5-(Isopropyl(methyl)amino)-2-((S)-2-oxo-3-((6-(trifluoromethyl)quinazolin-4-yl)amino)pyrrolidin-1-yl)cyclohexyl)carbamoyl)cyclohexyl)amino)-4-oxobutoxy)butoxy)ethyl)-1-methyl-5-oxo-2-(pyridin-3-yl)pyrrolidine-3-carboxamide], in test [1], the half-maximal inhibitory concentration (IC50) was no less than 10000 nM and the Emax at 10 µM is 23%. For the same compound, the “% Depletion of CCR2 expressing cells” value in test [2] was determined as 94%. In addition, the “ADCC Reporter Assay pEC50” value in test [3] stood at 9.

Take `CN1C(=O)C[C@H](C(=O)NCCOCCOCCOCCOCCOCCC(=O)N[C@@H]2C[C@H](NC(C)(C)C)CC[C@@H]2N2CC[C@H](Nc3ncnc4ccc(C(F)(F)F)cc34)C2=O)[C@H]1c1cccnc1` [Example 37, (2S,3S)-N-(18-(((1R,2S,5R)-5-(tert-Butylamino)-2-((S)-2-oxo-3-((6-(trifluoromethyl)quinazolin-4-yl)amino)pyrrolidin-1-yl)cyclohexyl)amino)-18-oxo-3,6,9,12,15-pentaoxaoctadecyl)-1-methyl-5-oxo-2-(pyridin-3-yl)pyrrolidine-3-carboxamide]: in test [1], the IC50 is no less than 10000 nM and the Emax at 10 µM worked out at 7.3%. For the same compound, the “% Depletion of CCR2 expressing cells” value in test [2] is 75%. Also, the EC50 in test [3] is 12.6 nM.

Turning to `CC(C)N(C)[C@@H]1CC[C@H](N2CC[C@H](Nc3ncnc4ccc(C(F)(F)F)cc34)C2=O)[C@H](NC(=O)CCOCCOCCOCCOCCOCCOCCNC(=O)[C@H]2CC(=O)N(C)[C@@H]2c2cccnc2)C1` [Example 41, (2S,3S)-N-(21-(((1R,2S,5R)-5-(isopropyl(methyl)amino)-2-((S)-2-oxo-3-((6-(trifluoromethyl)quinazolin-4-yl)amino)pyrrolidin-1-yl)cyclohexyl)amino)-21-oxo-3,6,9,12,15,18-hexaoxahenicosyl)-1-methyl-5-oxo-2-(pyridin-3-yl)pyrrolidine-3-carboxamide], in test [1], the IC50 is no less than 10000 nM and the Emax at 10 µM worked out at 20.1%. In addition, the EC50 in test [3] was 2 nM.

As to `CC(C)N(C)[C@@H]1CC[C@H](N2CC[C@H](Nc3ncnc4ccc(C(F)(F)F)cc34)C2=O)[C@H](NC2CCN(C(=O)CCOCCOCCOCCOCCNC(=O)[C@H]3CC(=O)N(C)[C@@H]3c3cccnc3)CC2)C1` [Example 69, (2S,3S)-N-(15-(4-(((1R,2S,5R)-5-(Isopropyl(methyl)amino)-2-((S)-2-oxo-3-((6-(trifluoromethyl)quinazolin-4-yl)amino)pyrrolidin-1-yl)cyclohexyl)amino)piperidin-1-yl)-15-oxo-3,6,9,12-tetraoxapentadecyl)-1-methyl-5-oxo-2-(pyridin-3-yl)pyrrolidine-3-carboxamide], the “% Depletion of CCR2 expressing cells” value in test [2] is reported as 98.59%. In test [3], the EC50 was 0.316 nM.

Regarding `CN1C(=O)C[C@H](C(=O)NCCOCCOCCOCCOCCOCCOCCC(=O)N[C@@H]2C[C@H](NC(C)(C)C)CC[C@@H]2N2CC[C@H](Nc3ncnc4ccc(C(F)(F)F)cc34)C2=O)[C@H]1c1cccnc1` [Example 38, (2S,3S)-N-(21-(((1R,2S,5R)-5-(tert-Butylamino)-2-((S)-2-oxo-3-((6-(trifluoromethyl)quinazolin-4-yl)amino)pyrrolidin-1-yl)cyclohexyl)amino)-21-oxo-3,6,9,12,15,18-hexaoxahenicosyl)-1-methyl-5-oxo-2-(pyridin-3-yl)pyrrolidine-3-carboxamide], in test [1], the IC50 was no less than 10000 nM and the Emax at 10 µM was -2.2%. Besides, in test [2], the “% Depletion of CCR2 expressing cells” value is recorded as 84.55%. Also, in test [3], the EC50 was 2.51 nM.

As for `CC(C)N(C)[C@@H]1CC[C@H](N2CC[C@H](Nc3ncnc4ccc(C(F)(F)F)cc34)C2=O)[C@H](NC(=O)CCOCCOCCOCCOCCOCCNC(=O)[C@H]2CC(=O)N(C)[C@@H]2c2cccnc2)C1` [Example 40, (2S,3S)-N-(18-(((1R,2S,5R)-5-(Isopropyl(methyl)amino)-2-((S)-2-oxo-3-((6-(trifluoromethyl)quinazolin-4-yl)amino)pyrrolidin-1-yl)cyclohexyl)amino)-18-oxo-3,6,9,12,15-pentaoxaoctadecyl)-1-methyl-5-oxo-2-(pyridin-3-yl)pyrrolidine-3-carboxamide], in test [1], the IC50 was no less than 10000 nM and the Emax at 10 µM came to 24.7%. Besides, in test [3], the EC50 was 6.31 nM.

On to `CC(C)N(C)[C@@H]1CC[C@H](N2CC[C@H](Nc3ncnc4ccc(C(F)(F)F)cc34)C2=O)[C@H](NC(=O)COCCNC(=O)COCCNC(=O)COCCNC(=O)[C@H]2CC(=O)N(C)[C@@H]2c2cccnc2)C1` [Example 111, (2S,3S)-N-(17-(((1R,2S,5R)-5-(Isopropyl(methyl)amino)-2-((S)-2-oxo-3-((6-(trifluoromethyl)quinazolin-4-yl)amino)pyrrolidin-1-yl)cyclohexyl)amino)-5,11,17-trioxo-3,9,15-trioxa-6,12-diazaheptadecyl)-1-methyl-5-oxo-2-(pyridin-3-yl)pyrrolidine-3-carboxamide], for which, in test [1], the midpoint of inhibition, the IC50, lay at 52900 nM and the Emax at 100 µM worked out at 67.6%. Besides, the “% Depletion of CCR2 expressing cells” value in test [2] stood at 50%.
